Test results reported in paper PMC11620517, “Novel hydrazone compounds with broad-spectrum antiplasmodial activity and synergistic interactions with antimalarial drugs” (Antimicrobial Agents and Chemotherapy, 2024).
“And” between values parts separate entries of the source, which are not always exact repeats. Identical values can stand only once. Like-named read-outs stand apart in the source and are kept apart here.

Legend:
[1] = biological target: T1, recombinant P. falciparum GST (Plasmodium falciparum, UniProt Q8ILQ7); assay: GST inhibition assay (CDNB); assay type: biochemical; conditions: 6-point 1–50 µM
T1 construct: The open reading frames encoding PfGST, PbGST, and hGST were gene-synthesized; TEV cleavage site (C); Avitag (C); purchased InterRayBio, LLC; host or cells: E. coli BL21 (DE3)
T1 sequence (Q8ILQ7 1-211): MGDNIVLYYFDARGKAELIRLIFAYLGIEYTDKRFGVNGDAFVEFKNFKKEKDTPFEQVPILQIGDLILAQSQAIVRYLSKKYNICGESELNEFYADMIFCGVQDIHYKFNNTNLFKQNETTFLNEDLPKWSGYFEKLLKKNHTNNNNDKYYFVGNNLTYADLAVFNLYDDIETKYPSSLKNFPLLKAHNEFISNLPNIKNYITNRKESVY
Experimental: (§1) Enzymatic activities of recombinant GSTs were determined spectrophotometrically using the chromogenic substrate 1-chloro-2,4-dinitrobenzene (CDNB). Recombinant GST (0.35 mg/mL) was mixed with 1 mM CDNB in 100 mM HEPES. Stock solutions (10 mM) of the CB compounds and hemin were prepared in 100% dimethyl sulfoxide (DMSO) and then diluted at 0.5% DMSO ([14]). Each inhibitor has six concentrations ranging from 1 to 50 µM. The reaction was initiated with 1 mM glutathione (GSH) after 15 minutes. Absorbance change at 340 nm was measured for 1 hour. The slope was converted to micromole per minute using Beer’s equation and the extinction coefficient for the product S-(2,4-dinitrophenyl)glutathione (ε340 nm = 9.6 mM^–1 cm^–1) ([14]). The assay was validated using human placenta GST (#G8642) as a positive control.

human GST = biological target: T2, human GST (Homo sapiens, UniProt P08263); assay: GST inhibition assay (CDNB); assay type: biochemical; conditions: 6-point 1–50 µM
T2 construct: The open reading frames encoding PfGST, PbGST, and hGST were gene-synthesized; TEV cleavage site (C); Avitag (C); purchased InterRayBio, LLC; host or cells: E. coli BL21 (DE3)
T2 sequence (P08263 1-222): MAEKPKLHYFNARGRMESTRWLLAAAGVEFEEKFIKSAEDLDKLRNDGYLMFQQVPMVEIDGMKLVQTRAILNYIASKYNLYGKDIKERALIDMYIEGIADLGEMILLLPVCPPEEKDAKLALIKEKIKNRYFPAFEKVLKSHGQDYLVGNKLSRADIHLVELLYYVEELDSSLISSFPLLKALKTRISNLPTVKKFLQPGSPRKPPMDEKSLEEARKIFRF
Experimental: as §1

[2] = system: P. falciparum oocyst formation in Anopheles stephensi mosquitoes; assay: P. falciparum oocyst inhibition assay (SMFA); assay type: in vivo, Plasmodium falciparum; conditions: for Mean oocyst # excluding zeros (Range): P. falciparum midgut infection in An. stephensi mosquitoes; for Median (oocysts) / Median I % / Prevalence % / Prevalence I %: pooled from two representative experiments
Experimental: As previously described, P. falciparum infections were performed using SMFA with NF54 gametocyte cultures diluted to 0.3% stage V gametocytemia ([62]). Infected blood (O+ human 45% hematocrit in serum) was offered to mosquitoes for 30 minutes, and engorged mosquitoes were maintained on a 10% corn syrup solution supplemented by four concentrations of CB compounds (1, 2.5, 5, and 10 µM) at […] ([63]), with DMSO serving as a control. Eight days post-infection, mosquito midguts were dissected and stained with 0.2% mercurochrome for 30 minutes, and oocysts were quantified under a light microscope ([63]).

P. falciparum TM91c235 = assay: Malaria SYBR Green I-Based Fluorescence (MSF) assay, blood stages; assay type: cell-based; conditions: Plasmodium falciparum; blood stages, 72 hours, multidrug resistant strain; read-out: IC50 (µM) (±SD) for strain: TM91c235
Experimental: (§2) MSF assays were performed in vitro with four P. falciparum strains: D6 (drug sensitive), TM91-C235 (multidrug resistant), W2 (CQ resistant), and C2B (multidrug resistant against ATQ). Parasite strains were kept continuously in long-term cultures as described ([22]). Pre-dosed 384-well plates containing […] serial dilutions of CB compounds (0.0098–20 µM) were prepared using the Tecan Freedom Evo liquid handling system (Tecan USA, Inc., Durham, NC, USA) and were stored at 4°C. A CQ control plate (2,000 ng/mL) was included in each run. Based on modifications of previous methods ([17], [55]), late-ring or early-trophozoite stages were cultured in pre-dosed plates with 0.3% parasitemia and 2% hematocrit. Cultures were incubated for 72 hours at 37°C in a controlled atmosphere of 5% CO2, 5% O2, and 90% N2. Lysis buffer, consisting of 20 mM Tris HCl, 5 mM EDTA, 1.6% Triton X, 0.016% saponin, and SYBR Green I dye at a 20X concentration (Invitrogen #S-7567), was added to the plates for a final 10X SYBR Green concentration. Plates containing cell culture media and lysis buffer were incubated in the dark at 25°C for 24 hours, and the relative fluorescence units (RFU) were measured using the Tecan Genios Plus (Tecan USA, Inc.).

P. falciparum C2B = assay: as above; assay type: cell-based; conditions: Plasmodium falciparum, 72 h, read-out: IC50 (µM) (±SD) for strain: C2B
Experimental: as §2

P. falciparum W2 = assay: as above; assay type: cell-based; conditions: Plasmodium falciparum, W2; blood stages, 72 hours, CQ resistant strain; read-out: IC50 (µM) (±SD) for strain: W2
Experimental: as §2

P. falciparum D6 = assay: as above; assay type: cell-based; conditions: Plasmodium falciparum, D6; blood stages, 72 hours, drug-sensitive strain; read-out: IC50 (µM) (±SD) for strain: D6
Experimental: as §2

SMILES: O=C(NN=Cc1ccccc1O)c1cc(-c2ccccc2)nc2ccccc12 [CB-53]
- GST inhibition [1]: did not inhibit
- GST inhibition (human GST): did not inhibit
- Median oocyst # ([2]; 1 μM compound): 1
- Mean oocyst # excluding zeros (Range) ([2]; 1 μM compound): 36 (0-125)
- Prevalence ([2]; 1 μM compound, infection prevalence in mosquitoes): 59
- inhibition at 1 µM ([2]; 1 μM compound, oocyst number vs DMSO control, read-out: % inhibition (mean)): 5%
- inhibition at 1 µM ([2]; 1 μM compound, oocyst number vs DMSO control, read-out: % inhibition (median)): 83%
- inhibition at 1 µM ([2]; 1 μM compound, vs DMSO control, read-out: % inhibition (prevalence)): 32%
- Median (oocysts) ([2]; 1 µM): 1
- Median I % ([2]; 1 µM): 83%
- Prevalence % ([2]; 1 µM): 59%
- Prevalence I % ([2]; 1 µM): 32%
- inhibition at 1 µM ([2]; 1 μM, single experiments, read-out: % inhibition (mean)): 36%
- Median oocyst # ([2]; 2.5 μM compound): 1
- Mean oocyst # excluding zeros (Range) ([2]; 2.5 μM compound): 29 (0-115)
- Prevalence ([2]; 2.5 μM compound, infection prevalence in mosquitoes): 60
- inhibition at 2.5 µM ([2]; 2.5 μM compound, oocyst number vs DMSO control, read-out: % inhibition (mean)): 22%
- inhibition at 2.5 µM ([2]; 2.5 μM compound, oocyst number vs DMSO control, read-out: % inhibition (median)): 83%
- inhibition at 2.5 µM ([2]; 2.5 μM compound, vs DMSO control, read-out: % inhibition (prevalence)): 31%
- Median (oocysts) ([2]; 2.5 µM): 1
- Median I % ([2]; 2.5 µM): 83%
- Prevalence % ([2]; 2.5 µM): 60%
- Prevalence I % ([2]; 2.5 µM): 31%
- Prevalence ([2]; 2.5 μM, single experiments): 67 and 91 and 47 and 70
- inhibition at 2.5 µM ([2]; 2.5 μM, single experiments, read-out: % inhibition (mean)): 37%
- Median oocyst # ([2]; 5 μM compound): 0
- Mean oocyst # excluding zeros (Range) ([2]; 5 μM compound): 26 (0-83)
- Prevalence ([2]; 5 μM compound, infection prevalence in mosquitoes): 48
- inhibition at 5 µM ([2]; 5 μM compound, oocyst number vs DMSO control, read-out: % inhibition (mean)): 44%
- inhibition at 5 µM ([2]; 5 μM compound, vs DMSO control, read-out: % inhibition (prevalence)): 44%
- Median (oocysts) ([2]; 5 µM): 0
- Median I % ([2]; 5 µM): 100%
- Prevalence % ([2]; 5 µM): 48%
- Prevalence I % ([2]; 5 µM): 44%
- % inhibition (mean) ([2]; 5 μM, single experiments): 23%
- inhibition at 5 µM ([2]; 5 μM, single experiments, read-out: % inhibition (mean)): 24%
- Median oocyst # ([2]; 10 μM compound): 1
- Mean oocyst # excluding zeros (Range) ([2]; 10 μM compound): 28 (0-129)
- Prevalence ([2]; 10 μM compound, infection prevalence in mosquitoes): 58
- inhibition at 10 µM ([2]; 10 μM compound, oocyst number vs DMSO control, read-out: % inhibition (mean)): 28%
- inhibition at 10 µM ([2]; 10 μM compound, oocyst number vs DMSO control, read-out: % inhibition (median)): 83%
- inhibition at 10 µM ([2]; 10 μM compound, vs DMSO control, read-out: % inhibition (prevalence)): 33%
- Median (oocysts) ([2]; 10 µM): 1
- Median I % ([2]; 10 µM): 83%
- Prevalence % ([2]; 10 µM): 58%
- Prevalence I % ([2]; 10 µM): 33%
- oocyst formation inhibition ([2]; 1 to 10 µM, midguts dissected 8 days after feeding): inhibit the development of oocysts
- IC50 (P. falciparum TM91c235): 13.9 µM
- IC50 (P. falciparum C2B): > 20 µM
- IC50 (P. falciparum W2): > 20 µM
- IC50 (P. falciparum D6): > 20 µM
